Test systems include SNB-19 CNS; OVCAR-5 ovarian; OVCAR-4 ovarian; ACHN renal; SF-539 CNS; HCT-15 colon; TK-10 renal; NCI-H23 lung; HL-60(TB) leukemia; MCF7 breast.
Holding throughout (assay): inhibition of tumour cell growth, NCI panel, 48 h

Seven molecules from PubChem BioAssay (NCI) can be followed below.

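Results reflect a 48-hour exposure of cells in 96-well plates to compound at five concentrations. GI50 = concentration required for 50% inhibition of growth. TGI: concentration producing complete growth inhibition.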

With `C=CC1CC12C(=O)C1OC2(C)C2C(=O)c3c(O)ccc(O)c3C(=O)C12` (stereo not given), the GI50 in the experiment with SNB-19 CNS was 5.35 µM; in the experiment with OVCAR-5 ovarian it was 5.69 µM; in the experiment with OVCAR-4 ovarian, 7.84 µM; in the experiment with ACHN renal, 1.77 µM; with SF-539 CNS it was 4.5 µM; in the experiment on HCT-15 colon it was 2 µM. The GI50 was 2.96 µM in the experiment with TK-10 renal, 2.95 µM with NCI-H23 lung, 1.19 µM with HL-60(TB) leukemia and 2.2 µM in the experiment on MCF7 breast. In addition, the TGI turned out to be 14.5 µM with SNB-19 CNS; 12 µM in the experiment with OVCAR-5 ovarian; 25.6 µM in the experiment with OVCAR-4 ovarian; 4.37 µM with ACHN renal; 14.8 µM in the experiment on SF-539 CNS; 5.05 µM in the experiment on HCT-15 colon. The TGI in the experiment with TK-10 renal was found to be 9.38 µM; with NCI-H23 lung it was 8.01 µM; in the experiment on HL-60(TB) leukemia it was 3.79 µM; with MCF7 breast it was 8.38 µM.

In the case of `COc1ccccc1/C=N\N=C(N/N=C/c1ccccc1OC)N/N=C/c1ccccc1OC`, the GI50 was 3.37 µM in the experiment with SNB-19 CNS; 4 µM in the experiment on OVCAR-5 ovarian; 3.43 µM with OVCAR-4 ovarian; 3.14 µM with ACHN renal; 4.27 µM in the experiment on SF-539 CNS; 3.27 µM with HCT-15 colon. In addition, the GI50 in the experiment with TK-10 renal was 6.01 µM; with NCI-H23 lung, 3.91 µM; in the experiment on HL-60(TB) leukemia, 3.09 µM; in the experiment with MCF7 breast, 3.02 µM. Besides, the TGI in the experiment with SNB-19 CNS is above 100 µM; in the experiment with OVCAR-5 ovarian it was above 100 µM; with OVCAR-4 ovarian it was above 100 µM; in the experiment on ACHN renal, above 100 µM; with SF-539 CNS, above 100 µM; in the experiment with HCT-15 colon, 18.3 µM. Further, the TGI with TK-10 renal is above 100 µM; in the experiment with NCI-H23 lung, above 100 µM; in the experiment on HL-60(TB) leukemia, 9.26 µM; in the experiment on MCF7 breast, 23.5 µM.

In the case of `CC(=O)O/N=C1/C(c2c(O)[nH]c3cc(Br)ccc23)=Nc2ccccc21`, the GI50 was 4.26 µM in the experiment on SNB-19 CNS; 2.51 µM in the experiment on OVCAR-5 ovarian; 1.6 µM in the experiment with OVCAR-4 ovarian; 0.707 µM in the experiment on ACHN renal; 0.818 µM in the experiment on SF-539 CNS; 0.962 µM with HCT-15 colon. In addition, the GI50 with TK-10 renal was 2.09 µM; in the experiment on NCI-H23 lung, 1.63 µM; in the experiment on HL-60(TB) leukemia, 1.88 µM; in the experiment with MCF7 breast, 1.93 µM. In addition, the TGI amounted to 11.1 µM in the experiment on SNB-19 CNS; 4.17 µM in the experiment on OVCAR-5 ovarian; 3.93 µM in the experiment on OVCAR-4 ovarian; 2.18 µM with ACHN renal; 3.13 µM with SF-539 CNS; 2.72 µM in the experiment on HCT-15 colon. For the same molecule, the TGI in the experiment on TK-10 renal came to 5.32 µM; in the experiment with NCI-H23 lung, 3.62 µM; in the experiment on HL-60(TB) leukemia it was 4.37 µM; with MCF7 breast, 5.98 µM.

Turning to `O=C(O)c1cc2cc(OCc3ccccc3)c(OCc3ccccc3)cc2[nH]1`, the GI50 with SNB-19 CNS was 32.1 µM; in the experiment with OVCAR-5 ovarian, 29.1 µM; with OVCAR-4 ovarian it was 34.9 µM; with ACHN renal it was 25.4 µM; in the experiment with SF-539 CNS, 19.9 µM; in the experiment with HCT-15 colon, 16.3 µM. Further, the GI50 is 24 µM in the experiment with TK-10 renal, 17.2 µM with NCI-H23 lung, 22.9 µM with HL-60(TB) leukemia and 21.8 µM in the experiment on MCF7 breast. Besides, the TGI is above 100 µM with SNB-19 CNS; 87.9 µM in the experiment on OVCAR-5 ovarian; above 100 µM in the experiment with OVCAR-4 ovarian; 90.1 µM with ACHN renal; 44 µM in the experiment with SF-539 CNS; 36.4 µM in the experiment on HCT-15 colon. For the same molecule, the TGI in the experiment with TK-10 renal was 70.6 µM; in the experiment with NCI-H23 lung, 38.1 µM; in the experiment with HL-60(TB) leukemia, above 100 µM; with MCF7 breast, 55.1 µM.

Consider `O=C(Nc1ccccc1O)c1ccc(Oc2cccc(C(=O)Nc3ccccc3O)c2)cc1`, for which the GI50 in the experiment with SNB-19 CNS was 2.08 µM; in the experiment with OVCAR-5 ovarian, 12.9 µM; in the experiment on OVCAR-4 ovarian it was 2.42 µM; in the experiment on ACHN renal, 2.64 µM; in the experiment with SF-539 CNS, 1.61 µM; in the experiment on HCT-15 colon it was 2.52 µM. For the same molecule, the GI50 in the experiment with TK-10 renal is 7.64 µM; in the experiment with NCI-H23 lung, 2.99 µM; in the experiment on HL-60(TB) leukemia, 1.37 µM; in the experiment with MCF7 breast it was 2.57 µM. In addition, the TGI amounted to 14.4 µM with SNB-19 CNS; 35 µM in the experiment on OVCAR-5 ovarian; 9.03 µM in the experiment with OVCAR-4 ovarian; 11.9 µM with ACHN renal; 6.3 µM with SF-539 CNS; 12.3 µM in the experiment on HCT-15 colon. Besides, the TGI in the experiment with TK-10 renal worked out at 30.2 µM; in the experiment with NCI-H23 lung, 11.3 µM; in the experiment on HL-60(TB) leukemia it was 10.4 µM; in the experiment on MCF7 breast it was 11.5 µM.

As for `NS(=O)(=O)c1cccc(N=Cc2c(O)[nH]c3ccccc23)c1`, the GI50 was above 25 µM in the experiment with SNB-19 CNS; above 25 µM with OVCAR-5 ovarian; above 25 µM in the experiment on OVCAR-4 ovarian; above 23.1 µM with ACHN renal; above 25 µM with SF-539 CNS; above 25 µM with HCT-15 colon. Also, the GI50 in the experiment on TK-10 renal is above 17.7 µM; in the experiment on NCI-H23 lung it was above 25 µM; with HL-60(TB) leukemia, above 25 µM; in the experiment on MCF7 breast, above 25 µM. Also, the TGI with SNB-19 CNS, in the experiment with OVCAR-5 ovarian, with OVCAR-4 ovarian, in the experiment on ACHN renal, in the experiment on SF-539 CNS and in the experiment on HCT-15 colon was above 25 µM each time. Further, the TGI in the experiment on TK-10 renal, in the experiment on NCI-H23 lung, in the experiment with HL-60(TB) leukemia and in the experiment on MCF7 breast was above 25 µM each time.

Consider `NC1=NC(c2ccc(Cl)cc2)C2=C(N1)/C(=C/c1ccc(Cl)cc1)CCC2` (stereo not given), for which the GI50 is 19.8 µM in the experiment with SNB-19 CNS; 25.2 µM with OVCAR-5 ovarian; 13.9 µM in the experiment with OVCAR-4 ovarian; 18 µM in the experiment with ACHN renal; 19.9 µM in the experiment with SF-539 CNS; 9.13 µM with HCT-15 colon. Besides, the GI50 with TK-10 renal is 27.4 µM; with NCI-H23 lung, 5.98 µM; in the experiment with HL-60(TB) leukemia, 12.3 µM; in the experiment on MCF7 breast it was 3.62 µM. In addition, the TGI was 99.3 µM in the experiment on SNB-19 CNS; 63.3 µM in the experiment with OVCAR-5 ovarian; 76.5 µM with OVCAR-4 ovarian; above 66.2 µM in the experiment on ACHN renal; above 78 µM with SF-539 CNS; 26.9 µM in the experiment on HCT-15 colon. Besides, the TGI with TK-10 renal is 86.8 µM; with NCI-H23 lung, 26.7 µM; in the experiment on HL-60(TB) leukemia, 45.8 µM; with MCF7 breast, above 100 µM.
